Data: ChEMBL document CHEMBL3632570, “Structure-Guided Design of Novel l-Cysteine Derivatives as Potent KSP Inhibitors” (ACS Med Chem Lett, 2015)
The source made the active and inactive calls. The calls are words filed in the database; no cut-off is given here.

Assays:
Mus musculus = assay: Toxicity in athymic nude BALB/cAJcL mouse xenografted with HCT116 cells assessed as mortality at 25 mg/kg, iv administered on days 1,3,5,8,10 and 12; format: organism-based, HCT-116; settings: in vivo
[1] = target: T1, Kinesin-like protein KIF23 (Homo sapiens) (UniProt Q02241); assay: Inhibition of microtubule-stimulated MKLP1 motor domain (1 to 446) (unknown origin) ATPase activity at 6.3 uM
T1 sequence (whole entry): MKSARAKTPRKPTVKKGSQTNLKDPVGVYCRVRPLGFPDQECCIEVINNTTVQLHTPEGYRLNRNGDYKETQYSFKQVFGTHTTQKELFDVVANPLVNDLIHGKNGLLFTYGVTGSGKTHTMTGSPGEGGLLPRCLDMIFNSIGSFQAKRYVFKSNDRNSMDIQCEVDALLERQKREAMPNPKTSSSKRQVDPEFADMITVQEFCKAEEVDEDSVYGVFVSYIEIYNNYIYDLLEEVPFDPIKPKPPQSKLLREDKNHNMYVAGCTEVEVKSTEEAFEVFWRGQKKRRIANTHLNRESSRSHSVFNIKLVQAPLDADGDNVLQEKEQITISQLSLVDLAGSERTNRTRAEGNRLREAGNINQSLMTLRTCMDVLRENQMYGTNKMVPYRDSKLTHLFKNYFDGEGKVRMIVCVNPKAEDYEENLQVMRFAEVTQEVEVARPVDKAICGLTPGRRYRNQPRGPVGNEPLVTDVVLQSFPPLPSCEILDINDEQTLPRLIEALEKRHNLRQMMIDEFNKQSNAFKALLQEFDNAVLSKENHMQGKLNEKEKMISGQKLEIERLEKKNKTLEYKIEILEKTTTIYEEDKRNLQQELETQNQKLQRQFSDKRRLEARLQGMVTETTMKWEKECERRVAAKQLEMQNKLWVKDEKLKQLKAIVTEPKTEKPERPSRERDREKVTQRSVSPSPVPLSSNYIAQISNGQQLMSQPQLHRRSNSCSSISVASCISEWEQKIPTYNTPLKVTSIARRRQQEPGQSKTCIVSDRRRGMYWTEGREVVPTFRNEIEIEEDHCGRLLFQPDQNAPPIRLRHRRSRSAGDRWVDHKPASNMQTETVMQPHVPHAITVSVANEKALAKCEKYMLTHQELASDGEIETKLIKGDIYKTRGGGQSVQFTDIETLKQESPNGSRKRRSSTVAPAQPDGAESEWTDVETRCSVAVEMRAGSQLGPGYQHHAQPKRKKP

HCT-116 [2] = assay: Growth inhibition of human HCT116 cells after 72 hrs by MTS assay; format: functional, cell-based; settings: HCT-116, 72 h
HCT-116 [3] = assay: Antitumor activity against human HCT116 cells xenografted in athymic nude BALB/cAJcL mouse assessed as inhibition of tumor growth at 25 mg/kg, iv administered on days 1,3,5,8,10 and 12 measured on day 15; format: functional
[4] = target: T2, Kinesin-like protein KIF15 (Homo sapiens) (UniProt Q9NS87); assay: Inhibition of microtubule-stimulated KIF15 motor domain (1 to 372) (unknown origin) ATPase activity at 6.3 uM
T2 sequence (whole entry): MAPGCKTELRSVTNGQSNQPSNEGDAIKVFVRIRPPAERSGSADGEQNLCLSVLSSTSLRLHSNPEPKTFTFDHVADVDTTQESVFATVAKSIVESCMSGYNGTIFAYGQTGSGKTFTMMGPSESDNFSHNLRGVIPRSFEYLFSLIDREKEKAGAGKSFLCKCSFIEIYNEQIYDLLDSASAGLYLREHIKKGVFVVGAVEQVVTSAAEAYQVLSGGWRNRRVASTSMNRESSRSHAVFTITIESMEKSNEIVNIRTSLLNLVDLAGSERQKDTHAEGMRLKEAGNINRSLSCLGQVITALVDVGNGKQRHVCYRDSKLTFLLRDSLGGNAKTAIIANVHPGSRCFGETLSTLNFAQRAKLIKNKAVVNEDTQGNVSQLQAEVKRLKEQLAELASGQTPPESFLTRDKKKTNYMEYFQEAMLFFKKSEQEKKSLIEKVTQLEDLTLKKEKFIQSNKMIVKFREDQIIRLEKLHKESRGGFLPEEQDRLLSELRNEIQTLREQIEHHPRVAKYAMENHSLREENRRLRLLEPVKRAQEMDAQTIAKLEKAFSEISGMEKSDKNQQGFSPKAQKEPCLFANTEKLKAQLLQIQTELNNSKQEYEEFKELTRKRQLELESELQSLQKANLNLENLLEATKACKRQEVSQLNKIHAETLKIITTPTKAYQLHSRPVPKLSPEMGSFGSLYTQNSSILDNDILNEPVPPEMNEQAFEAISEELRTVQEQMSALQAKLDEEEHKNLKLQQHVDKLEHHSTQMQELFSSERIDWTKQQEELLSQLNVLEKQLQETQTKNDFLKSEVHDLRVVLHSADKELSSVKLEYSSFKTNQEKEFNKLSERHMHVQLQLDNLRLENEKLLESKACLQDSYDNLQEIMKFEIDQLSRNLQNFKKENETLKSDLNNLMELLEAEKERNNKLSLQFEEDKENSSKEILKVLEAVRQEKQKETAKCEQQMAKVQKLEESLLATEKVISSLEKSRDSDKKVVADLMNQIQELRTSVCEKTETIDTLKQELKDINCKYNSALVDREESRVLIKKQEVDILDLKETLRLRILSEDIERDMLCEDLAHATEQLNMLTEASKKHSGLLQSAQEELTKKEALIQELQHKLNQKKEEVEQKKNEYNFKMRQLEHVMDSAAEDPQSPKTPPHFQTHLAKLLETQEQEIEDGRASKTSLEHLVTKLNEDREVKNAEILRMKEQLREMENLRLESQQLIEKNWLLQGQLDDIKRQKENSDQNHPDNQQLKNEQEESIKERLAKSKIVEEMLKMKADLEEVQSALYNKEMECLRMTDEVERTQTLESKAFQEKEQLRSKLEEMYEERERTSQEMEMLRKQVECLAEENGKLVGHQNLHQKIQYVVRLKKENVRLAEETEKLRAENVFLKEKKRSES

Row | SMILES | Activity (Mus musculus) | inhibition [1] | IC50 (HCT-116 [2]) [nM] | T/C (HCT-116 [3]) [%] | inhibition [4]
1 | COc1ccc(C2(SC[C@H](N)C(=O)O)c3ccccc3CCc3ccccc32)cc1 | Non-toxic | inactive | 28 | 26 | inactive
2 | N[C@@H](CSC1(c2ccc(C(F)(F)F)cc2)c2ccccc2CCc2ccccc21)C(=O)O | Non-toxic | inactive | 11 | 21 | inactive
